Results reported in patent US12427134B2, “Methods of reducing the risk of cardiovascular events in a subject with atrial fibrillation and/or atrial flutter” (priority 2019, dated 2025).

Test system: hypertriglyceridemic patients with cardiovascular disease or at high risk for cardiovascular disease
Experiment: REDUCE-IT: fasting lipid, lipoprotein and inflammatory biomarkers and serum EPA, change from baseline
Type: in vivo, human
Conditions: for Approximated LDL-C (Hopkins), median difference from placebo in percent change from baseline: Hodges-Lehmann estimate
Procedure: Fasting Lipid Profile: The fasting lipid panel included: TG, TC, LDL-C, HDL-C, non-HDL-C, and VLDL-C. At all visits, LDL-C was calculated using the Friedewald equation. At Visit 1 and Visit 1.1 direct LDL-C were used if at the same visit TG >400 mg/dL (4.52 mmol/L). These LDL-C values were used for the evaluation of the LDL-C inclusion criterion (LDL-C qualifying measurements for randomization) and for the assessment of changes in the statin therapy when LDL-C was not at goal. […] In addition, irrespective of the TG levels, at Visit 2 (0 Months of Follow-up, baseline) and at Visit 4 (12 Months of Follow-up), LDL-C were measured by preparative ultracentrifugation. These preparative ultracentrifugation LDL-C measurements were used in the statistical analysis including the calculation of the percent change from baseline (1 year versus baseline). Hopkins LDL-C was calculated for each visit.
Biomarkers Assays: The biomarker assays included: hsCRP, Apo B and hsTnT.
The fasting lipid panel was tested at Screening (Visit 1 or Visit 1.1), Randomization visit (Visit 2; Day 0), Visit 3 (Day 120; ˜4 Months) and all other follow-up visits including the last visit. For change from baseline to 1 year preparative ultracentrifugation measurements for LDL-C were analyzed, unless this value was missing. If the LDL-C preparative ultracentrifugation values were missing, then another LDL-C value was used, with prioritization of values obtained from LDL-C Direct measurements, followed by LDL-C derived by the Friedewald calculation (only for subjects with TG <400 mg/dL), and finally LDL-C derived using the calculation published by Hopkins University investigators (Martin S S, Blaha M J, Elshazly M B, et al. Comparison of a novel method vs the Friedewald equation for estimating low-density lipoprotein cholesterol levels from the standard lipid profile. JAMA. 2013; 310:2061-8.). In addition, change from baseline to day 120 in LDL-C utilizing Friedewald's and Hopkins methods was analyzed, using the arithmetic mean of LDL-C obtained at Visit 2 (Day 0) and the preceding Visit 1 (or Visit 1.1). If one of these values was missing, the single available LDL-C value was used. LDL-C according to Hopkins was calculated at each visit.
The randomization visit was considered Baseline. If a baseline value was not available from the randomization visit, then the latest screening value was used. For measurements of lipids, lipoproteins and inflammatory markers, the change and the percent change were summarized at each visit. Since these biomarkers are typically not normally distributed, the Wilcoxon rank-sum test was used for treatment comparisons of the percent change from baseline, and medians and quartiles were provided for each treatment group. The medians of the differences between the treatment groups and 95% CIs were estimated with the Hodges-Lehmann method. In addition, shift-tables were generated as appropriate.

[1] = Last Visit, vs placebo, ITT population
[2] = baseline to the last study value

In the case of `CC/C=C\C/C=C\C/C=C\C/C=C\C/C=C\CCCC(=O)OCC` [AMR101, eicosapentaenoic acid ethyl ester], the “Apo B Median Observed Value” (Baseline, ITT population) is reported as 82.0 mg/dL, the “LDL-C Hopkins Median Observed Value” (Baseline, ITT population) is reported as 85.8 mg/dL and the “LDL-C derived Median Observed Value” (Baseline, ITT population) is reported as 74.0. The “Non-HDL-C Median Observed Value” (Baseline, ITT population) was 118.0 mg/dL, the “Triglycerides Median Observed Value” (Baseline, ITT population) was 216.5 mg/dL and the “hsCRP Median Observed Value” (Baseline, ITT population) was 2.2 mg/L. The “LDL-C derived Median Observed Value” (Last Visit, ITT population) was 77.0, the “Triglycerides Median Absolute Change from Baseline” value (Last Visit, ITT population) was 45.0 mg/dL and the “LDL-C derived Between Group Difference Median % Change from Baseline” value [1] was −6.6%. The “LDL-C derived Between Group Difference Median Absolute Change from Baseline” value [1] was −5.0, the “HDL-C, median” value (Year 1) was 39.0 mg/dL and the “LDL-C, median” value (Year 1) was 77.0 mg/dL. The “HDL-C, median between group difference, % change from baseline” value (Year 1, vs placebo) was −6.3%, the “HDL-C, median between group difference, absolute change from baseline” value (Year 1, vs placebo) was -2.5 mg/dL and the “LDL-C, median between group difference, % change from baseline” value (Year 1, vs placebo) was −6.6%. For the same compound, the “LDL-C, median between group difference, absolute change from baseline” value (Year 1, vs placebo) was -5.0 mg/dL, the “Triglycerides Between Group Difference Median Absolute Change from Baseline” value (Year 1, vs placebo, ITT population) was 44.5 mg/dL and the “Non-HDL-C Median Observed Value” (Year 2, ITT population) was 113.0 mg/dL. For the same compound, the “Triglycerides Between Group Difference Median % Change from Baseline” value (Year 2, vs placebo, ITT population) was −19.7%, the “HDL-C Median Observed Value” (Year 3, ITT population) was 40.0 mg/dL and the “Non-HDL-C Median Absolute Change from Baseline” value (Year 3, ITT population) was 4.8 mg/dL. For the same compound, the “Non-HDL-C Median % Change from Baseline” value (Year 4, ITT population) was 4.2%, the “Non-HDL-C Median % Change from Baseline” value (Year 5, ITT population) was 4.4% and the “Approximated LDL-C (Hopkins), median change from baseline” value (baseline to one year) was -1.1 mg/dL. For the same compound, the “Approximated LDL-C (Hopkins), median percent change from baseline” value (baseline to one year) was −1.2%, the “Triglycerides, median change from baseline” value (baseline to one year) was -39.0 mg/dL and the “Triglycerides, median percent change from baseline” value (baseline to one year) was −18.3%. The “Approximated LDL-C (Hopkins), median change from baseline” value [2] was -1.0 mg/dL, the “Approximated LDL-C (Hopkins), median percent change from baseline” value [2] was −1.2% and the “Triglycerides, median change from baseline” value [2] was -45.0 mg/dL. The “Triglycerides, median percent change from baseline” value [2] was −21.6%, the “Approximated LDL-C (Hopkins), median difference from placebo in percent change from baseline” value (last study value) was −7.4% and the “Triglycerides, greater reduction than in the placebo group” value (one year) was 44.5 mg/dL. For the same compound, the “Triglycerides, median reduction from baseline greater than in the placebo group” value (one year, Hodges-Lehmann approach) was 19.7% and the “Approximated LDL-C (Hopkins), median difference from placebo in percent change from baseline” value (one year) was −11.4%.
